Measured values taken from US20230286973A1, “PROTEIN SECRETION INHIBITORS” (KEZAR LIFE SCIENCES, priority 2020, published 2023).

Key:
[1] = Liver Microsome Stability Assay (rat); settings: rat liver microsomes, with NADPH, 1.0 uM compound
Experimental: (§1) Stability of a compound was assessed in the presence of liver microsomes from various sources—mouse, rat, monkey and human liver microsomes. 1.0 uM compound, 0.4% DMSO in 0.1 M Potassium Phosphate with 1.0 mg/mL liver microsomes, were incubated at 37° C. with or without 1 mM NADPH. The samples were quenched at 0, and 30 minutes.

[2] = tested on: HER3-ss+4aa/Gaussia Luciferase; assay: Dox-Induced Her3-ss-Gluc Assay; type: cell-based; settings: 24 hr Dox induction; 293FRT/TO cells; read-out: 24 hr Dox Inducible Her3(ss + 4)Gluc 293FRT/TO: Mean IC50
Summary of the method: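 Cells were seeded a day ahead, then given compound diluted in DMSO/media with doxycycline to induce expression of the HER3 signal sequence (+4 aa)–Gaussia luciferase fusion. Incubation was at 37° C., 5% CO2, in a stable Flp-In 293 T-REx line.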

[3] = Liver Microsome Stability Assay (mouse); settings: mouse liver microsomes, with NADPH, 1.0 uM compound
Experimental: as §1

[4] = Liver Microsome Stability Assay (human); settings: human liver microsomes, with NADPH, 1.0 uM compound
Experimental: as §1

[5] = tested on: PD1-ss+10aa/Gaussia Luciferase; assay: Dox-Induced PD1-ss-Gluc Assay; type: cell-based; settings: 24 hr Dox induction; 293FRT/TO cells; read-out: 24 hr Dox Inducible PD1ssGluc 293FRT/TO: Mean IC50
Summary of the method: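 Flp-In 293 T-REx, stable line; Tet-regulated PD1-ss+10aa fused to Gaussia luciferase; plated day prior; cpd + doxycycline in DMSO/media; 37 °C, 5% CO2.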

[6] = Liver Microsome Stability Assay (monkey); settings: monkey liver microsomes, with NADPH, 1.0 uM compound
Experimental: as §1

[7] = tested on: multiple myeloma cell line NCI-H929; assay: H929 Cell Viability Assay; type: cell-based, human; settings: Homo sapiens, NCI-H929, 48 h, NCI-H929 cells, Celltiter-Glo
Summary of the method: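 Luminescent ATP detection (CellTiter-Glo) after 48 hours of compound exposure measures viability. Cells were plated in RPMI 1640 containing 10% fetal bovine serum and kept at 37° C under 5% CO2.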

[8] = tested on: IL-2-FL/Gaussia Luciferase; assay: Dox Induced IL2-FL-Gluc Assay; type: cell-based; settings: for IC50: 24 hr Dox induction, 293FRT/TO cells, read-out: 24 hr Dox Inducible IL2FLGluc 293FRT/TO: Mean IC50; for 24 hr Dox Inducible IL2FLGluc 293FRT/TO: IL2/PD1: ratio of IL2FLGluc IC50 to PD1ssGluc IC50
Summary of the method: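 Cells are plated one day ahead, then receive compound dilutions in DMSO/media with doxycycline and incubate at 37° C, 5% CO2. They are Flp-In 293 T-REx cells expressing a full-length IL-2 (amino acids 1-153)–Gaussia luciferase fusion under T-REx control.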

[9] = tested on: TNFα-FL/Gaussia Luciferase; assay: Dox Induced TNFα-FL-Gluc Assay; type: cell-based; settings: for IC50: 24 hr Dox induction, 293FRT/TO cells, read-out: 24 hr Dox Inducible TNFaFLGluc 293FRT/TO: Mean IC50; for 24 hr Dox Inducible TNFaFLGluc 293FRT/TO: TNF/PD1: ratio of TNFaFLGluc IC50 to PD1ssGluc IC50
Summary of the method: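 Stereoisomer mixtures were tested where stereochemistry is not drawn. Induction used doxycycline added together with compound dilutions in DMSO/media to Flp-In 293 T-REx cells carrying a T-REx-regulated TNFα (aa 1-233)-Gaussia luciferase construct, then incubated at 37 °C, 5% CO2.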

[10] = tested on: multiple myeloma cell line U266B1; assay: U266 Cell Viability Assay; type: cell-based, human; settings: Homo sapiens, U-266, 48 h, U266B1 cells, Celltiter-Glo
Summary of the method: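 Steps: culture in RPMI 1640 plus 10% FBS and 2 mM glutamine; plate and add compound dilutions; incubate 48 hours at 37° C., 5% CO2; add CellTiter-Glo and quantify luciferase signal.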

| SMILES | Liver Microsome Stability (Multiple Species): Rat - % Remaining after 30 min w/NADPH [1] [%] | IC50 [2] [nM] | Liver Microsome Stability (Multiple Species): Mouse - % Remaining after 30 min w/NADPH [3] [%] | Liver Microsome Stability (Multiple Species): Human - % Remaining after 30 min w/NADPH [4] [%] | IC50 [5] [nM] | Liver Microsome Stability (Multiple Species): Monkey - % Remaining after 30 min w/NADPH [6] [%] | EC50 [7] [nM] | IC50 [8] [nM] | IC50 [9] [nM] | EC50 [10] [nM] | 24 hr Dox Inducible IL2FLGluc 293FRT/TO: IL2/PD1 [8] | 24 hr Dox Inducible TNFaFLGluc 293FRT/TO: TNF/PD1 [9] |
| --- | --- | --- | --- | --- | --- | --- | --- | --- | --- | --- | --- | --- |
| O=C(Nc1nc([C@H]2CCCN2c2ccc(OC3CS(=O)(=O)C3)cc2)cs1)c1cccn1Cc1ccnc(F)c1 [Compound A158] | 24.2 | 128 | 14.5 | 8.23 | 90.5 | 1.84 | 3320 | 130 | 1060 | > 25000 | 1.4 | 11.7 |
| CC(=O)N1CCC(Cc2ccc(N3CCC[C@@H]3c3csc(NC(=O)c4cccn4Cc4ccnc(F)c4)n3)cc2)CC1 [Compound A160, (R)-N-(4-(1-(4-((1-acetylpiperidin-4-yl)methyl)phenyl)pyrrolidin-2-yl)thiazol-2-yl)-1-((2-fluoropyridin-4-yl)methyl)-1H-pyrrole-2-carboxamide] | 16.8 | 82.4 | 6.28 | 0.66 | 48.1 | 0.18 | 2670 | 96 | 691 | > 25000 | 2 | 14.3 |
| CC(=O)N1CCC(C(C)c2ccc(N3CCC[C@@H]3c3csc(NC(=O)c4cccn4Cc4ccnc(F)c4)n3)cc2)CC1 (stereo partly drawn) [Compound A161, N-(4-((2R)-1-(4-(1-(1-acetylpiperidin-4-yl)ethyl)phenyl)pyrrolidin-2-yl)thiazol-2-yl)-1-((2-fluoropyridin-4-yl)methyl)-1H-pyrrole-2-carboxamide] | 7.32 | 406 | 0.42 | 1.04 | 284 | 0.12 | 12400 | 640 | 4000 | > 25000 | 2.3 | 14.1 |
| O=C(Nc1nc(-c2cccc(-c3ccccn3)c2)cs1)c1cccn1Cc1ccnc(F)c1 [Compound A162, 1-((2-fluoropyridin-4-yl)methyl)-N-(4-(3-(pyridin-2-yl)phenyl)thiazol-2-yl)-1H-pyrrole-2-carboxamide] | 8.48 | 1270 | 7.13 | 1.91 | 758 | 0.25 | > 25000 | 1770 | > 25000 | > 25000 | 2.4 | >33.0 |
| CC(=O)N1CCC(Oc2ccc(N3CCC[C@@H]3c3csc(NC(=O)c4cc(C)cn4Cc4ccnc(F)c4)n3)cc2)CC1 [Compound A165, (R)-N-(4-(1-(4-((1-acetylpiperidin-4-yl)oxy)phenyl)pyrrolidin-2-yl)thiazol-2-yl)-1-((2-fluoropyridin-4-yl)methyl)-4-methyl-1H-pyrrole-2-carboxamide] | 59.2 | 53 | 30.7 | 42.1 | 29.8 | 47.5 | 867 | 45.2 | 386 | > 25000 | 1.5 | 13 |
| Cc1cc(C(=O)Nc2nc([C@H]3CCCN3c3ccc(OC4CCN(C(N)=O)CC4)cc3)cs2)n(Cc2ccnc(F)c2)c1 [Compound A166, (R)-4-(4-(2-(2-(1-((2-fluoropyridin-4-yl)methyl)-4-methyl-1H-pyrrole-2-carboxamido)thiazol-4-yl)pyrrolidin-1-yl)phenoxy)piperidine-1-carboxamide] | 78.7 | 93.7 | 63.9 | 64.3 | 52.8 | 72.2 | 2210 | 109 | 744 | > 25000 | 2.1 | 14.1 |

More lines, in order of falling IC50 [2], values ahead:

| Liver Microsome Stability (Multiple Species): Rat - % Remaining after 30 min w/NADPH [1] [%] | IC50 [2] [nM] | Liver Microsome Stability (Multiple Species): Mouse - % Remaining after 30 min w/NADPH [3] [%] | Liver Microsome Stability (Multiple Species): Human - % Remaining after 30 min w/NADPH [4] [%] | IC50 [5] [nM] | Liver Microsome Stability (Multiple Species): Monkey - % Remaining after 30 min w/NADPH [6] [%] | EC50 [7] [nM] | IC50 [8] [nM] | IC50 [9] [nM] | EC50 [10] [nM] | SMILES | 24 hr Dox Inducible IL2FLGluc 293FRT/TO: IL2/PD1 [8] | 24 hr Dox Inducible TNFaFLGluc 293FRT/TO: TNF/PD1 [9] |
| --- | --- | --- | --- | --- | --- | --- | --- | --- | --- | --- | --- | --- |
| 19.7 | 35.8 | 36 | 9.01 | 27.9 | 3.91 | 1620 | 80.6 | 790 | > 25000 | NC(=O)N1CCC(Oc2ccc(N3CCC[C@@H]3c3csc(NC(=O)c4cccn4Cc4ccnc(F)c4)n3)cn2)CC1 [Compound A159, (R)-4-((5-(2-(2-(1-((2-fluoropyridin-4-yl)methyl)-1H-pyrrole-2-carboxamido)thiazol-4-yl)pyrrolidin-1-yl)pyridin-2-yl)oxy)piperidine-1-carboxamide] | 2.9 | 28.3 |
| 50.2 | 29.9 | 36.3 | 67.5 | 16.1 | 44.9 | 714 | 39.6 | 328 | > 25000 | Cc1cc(C(=O)Nc2nc([C@H]3CCCN3c3ccc(NC(=O)N(C)C)cc3)cs2)n(Cc2ccnc(F)c2)c1 [Compound A163, (R)-N-(4-(1-(4-(3,3-dimethylureido)phenyl)pyrrolidin-2-yl)thiazol-2-yl)-1-((2-fluoropyridin-4-yl)methyl)-4-methyl-1H-pyrrole-2-carboxamide] | 2.5 | 20.3 |
| 19.4 | 17.3 | 18.8 | 36.5 | 7.95 | 32.3 | 274 | 19.1 | 148 | > 25000 | CC(=O)Nc1ccc(N2CCC[C@@H]2c2csc(NC(=O)c3cc(C)cn3Cc3ccnc(F)c3)n2)cc1 [Compound A164, (R)-N-(4-(1-(4-acetamidophenyl)pyrrolidin-2-yl)thiazol-2-yl)-1-((2-fluoropyridin-4-yl)methyl)-4-methyl-1H-pyrrole-2-carboxamide] | 2.4 | 18.7 |
